Results reported in ChEMBL document CHEMBL1139835, “Novel quinolizidinyl derivatives as antiarrhythmic agents” (J Med Chem, 2007).
The source made the active and inactive calls. The rule behind the calls is not given here.

Columns and labels:
[1] = Negative inotropic activity assessed as decrease in developed tension in isolated guinea pig left atrium; format: functional, tissue-based; settings: Cavia porcellus, Cardiac atrium
[2] = Negative chronotropic activity assessed as decrease in atrial rate in isolated guinea pig right atrium at 100 uM relative to control; format: functional, Cavia porcellus, Cardiac atrium; design: scale not given: the % may be the effect or the level left
Aorta [3] = assay: Inhibition of calcium-induced contraction of potassium ion depolarized guinea pig aortic strips at 50 uM; format: functional; settings: Cavia porcellus
[4] = (§1) Activity against alternating current-induced arrhythmia in guinea pig left atrium at 10 uM; format: functional, Cavia porcellus, Cardiac atrium
[5] = Negative inotropic activity assessed as decrease in developed tension in isolated guinea pig left atrium at 10 uM relative to control; format: functional, Cavia porcellus, Cardiac atrium; design: scale not given: the % may be the effect or the level left
[6] = Activity against alternating current-induced arrhythmia in guinea pig left atrium at 50 uM; format: functional, Cavia porcellus, Cardiac atrium
[7] = Negative inotropic activity assessed as decrease in developed tension in isolated guinea pig left atrium at 100 uM relative to control; format: functional, Cavia porcellus, Cardiac atrium; design: scale not given: the % may be the effect or the level left
[8] = Negative chronotropic activity assessed as decrease in atrial rate in isolated guinea pig right atrium at 50 uM relative to control; format: functional, Cavia porcellus, Cardiac atrium; design: scale not given: the % may be the effect or the level left
tissue or blood = settings: Cavia porcellus, Cardiac atrium
Aorta [9] = assay: Inhibition of calcium-induced contraction of potassium ion depolarized guinea pig aortic strips at 100 uM; format: functional; settings: Cavia porcellus
[10] = Negative inotropic activity assessed as decrease in developed tension in isolated guinea pig left atrium at 1 uM relative to control; format: functional, Cavia porcellus, Cardiac atrium; design: scale not given: the % may be the effect or the level left
[11] = (§2) Activity against alternating current-induced arrhythmia in guinea pig left atrium at 100 uM; format: functional, Cavia porcellus, Cardiac atrium
[12] = Activity against alternating current-induced arrhythmia in guinea pig left atrium; format: functional, tissue-based; settings: Cavia porcellus, Cardiac atrium
[13] = Negative inotropic activity assessed as decrease in developed tension in isolated guinea pig left atrium at 50 uM relative to control; format: functional, Cavia porcellus, Cardiac atrium; design: scale not given: the % may be the effect or the level left
Cavia porcellus [14] = organism: Cavia porcellus; assay: as §2; format: functional; settings: Cardiac atrium
Heart [15] = assay: Intraventricular conduction time in spontaneously beating Langendorff-perfused guinea pig heart at 10 nM; format: functional, Cavia porcellus
Heart [16] = assay: Heart rate in spontaneously beating Langendorff-perfused guinea pig heart at 1 nM; format: functional, Cavia porcellus; design: unit not given here
Heart [17] = assay: Intraventricular conduction time in spontaneously beating Langendorff-perfused guinea pig heart at 10 uM; format: functional, Cavia porcellus
Heart [18] = assay: Heart rate in spontaneously beating Langendorff-perfused guinea pig heart at 10 uM; format: functional, Cavia porcellus; design: unit not given here
Heart [19] = assay: Atrioventricular conduction time in spontaneously beating Langendorff-perfused guinea pig heart at 1 nM; format: functional, Cavia porcellus
Heart [20] = assay: Intraventricular conduction time in spontaneously beating Langendorff-perfused guinea pig heart at 1 uM; format: functional, Cavia porcellus
Heart [21] = assay: Ventricular action potential duration in spontaneously beating Langendorff-perfused guinea pig heart at 0.1 uM; format: functional, Cavia porcellus
Heart [22] = assay: Heart rate in spontaneously beating Langendorff-perfused guinea pig heart at 0.1uM; format: functional, Cavia porcellus; design: unit: beats/min
Heart [23] = assay: Atrioventricular conduction time in spontaneously beating Langendorff-perfused guinea pig heart at 1 uM; format: functional, Cavia porcellus
Heart [24] = assay: Intraventricular conduction time in spontaneously beating Langendorff-perfused guinea pig heart at 1 nM; format: functional, Cavia porcellus
Heart [25] = assay: Atrioventricular conduction time in spontaneously beating Langendorff-perfused guinea pig heart at 10 uM; format: functional, Cavia porcellus
Heart [26] = assay: Atrioventricular conduction time in spontaneously beating Langendorff-perfused guinea pig heart at 0.1 uM; format: functional, Cavia porcellus
Heart [27] = assay: Intraventricular conduction time in spontaneously beating Langendorff-perfused guinea pig heart at 0.1 uM; format: functional, Cavia porcellus
Heart [28] = assay: Heart rate in spontaneously beating Langendorff-perfused guinea pig heart at 10 nM; format: functional, Cavia porcellus; design: unit not given here
Heart [29] = assay: Heart rate in spontaneously beating Langendorff-perfused guinea pig heart at 1 uM; format: functional, Cavia porcellus; design: unit not given here
Heart [30] = assay: Ventricular action potential duration in spontaneously beating Langendorff-perfused guinea pig heart at 1 nM; format: functional, Cavia porcellus
Heart [31] = assay: Ventricular action potential duration in spontaneously beating Langendorff-perfused guinea pig heart at 10 uM; format: functional, Cavia porcellus
Heart [32] = assay: Atrioventricular conduction time in spontaneously beating Langendorff-perfused guinea pig heart at 10 nM; format: functional, Cavia porcellus
Heart [33] = assay: Ventricular action potential duration in spontaneously beating Langendorff-perfused guinea pig heart at 1 uM; format: functional, Cavia porcellus
Heart [34] = assay: Ventricular action potential duration in spontaneously beating Langendorff-perfused guinea pig heart at 10 nM; format: functional, Cavia porcellus
[35] = Positive chronotropic activity in isolated guinea pig right atrium relative to control; format: functional, Cavia porcellus, Cardiac atrium
Cavia porcellus [36] = organism: Cavia porcellus; assay: as §1; format: functional; settings: Cardiac atrium
[37] = Displacement of [3H]batrachotoxin from sodium channel in rat brain; format: tissue-based
[38] = Negative inotropic activity assessed as decrease in developed tension in isolated guinea pig left atrium at 5 uM relative to control; format: functional, Cavia porcellus, Cardiac atrium; design: scale not given: the % may be the effect or the level left

## Cc1cc(N)cc(C)c1OC[C@H]1CCCN2CCCC[C@H]12
[1]
  EC50: 630 nM
[2]
  Activity: 44%
Aorta [3]
  inhibition at 50 µM: 32%
[4]
  Activity: 38%
[5]
  Activity: 91%

## Cc1cc([N+](=O)[O-])cc(C)c1OC[C@@H]1CCCN2CCCC[C@H]12
[6]
  Activity: 27%
[1]
  EC50: 8390 nM
[7]
  Activity: 91%
[8]
  Activity: 66%
Tissue or blood
  EC50: 23.7 µM
Aorta [9]
  inhibition at 100 µM: 16%

## O=C(NC[C@@H]1CCCN2CCCC[C@H]12)c1ccc([N+](=O)[O-])cc1
[1]
  EC50: 38 nM
[2]
  Activity: 28%
[10]
  Activity: 74%
Aorta [9]
  inhibition at 100 µM: 18%
[11]
  Activity: 18%

## Cc1cc(C(=O)c2ccccc2)cc(C)c1OC[C@H]1CCCN2CCCC[C@H]12
[6]
  Activity: 104%
[1]
  EC50: 160 nM
[8]
  Activity: 75%
Tissue or blood
  EC50: 6.63 µM
[10]
  Activity: 64%
[12]
  EC50: 19.9 µM
Aorta [3]
  inhibition at 50 µM: 38%

## Cc1cc([N+](=O)[O-])cc(C)c1NC(=O)C[C@@H]1CCCN2CCCC[C@H]12
[1]
  EC50: 3460 nM
[2]
  Activity: 25%
Aorta [9]
  inhibition at 100 µM: 4%
[13]
  Activity: 79%
Cavia porcellus [14]
  Activity: inactive

## CS(=O)(=O)Nc1ccc(C(=O)NC[C@@H]2CCCN3CCCC[C@H]23)cc1
[1]
  EC50: 250 nM
[2]
  Activity: 4%
Aorta [9]
  inhibition at 100 µM: 1%
[13]
  Activity: 92%
[11]
  Activity: 34%

## Cc1cc(C(=O)c2ccccc2)cc(C)c1OC[C@@H]1CCCN2CCCC[C@H]12
[6]
  Activity: 64%
[1]
  EC50: 160 nM
[8]
  Activity: 41%
[12]
  EC50: 6.75 µM
Aorta [9]
  inhibition at 100 µM: 17%
[13]
  Activity: 94%

## CC(=O)Nc1ccc(C(=O)NC[C@@H]2CCCN3CCCC[C@H]23)cc1
Heart [15]
  Activity: 33 ms
[6]
  Activity: 92%
[1]
  EC50: 59 nM
Heart [16]
  Activity: 180
Heart [17]
  Activity: 33 ms
Heart [18]
  Activity: 165
Heart [19]
  Activity: 62 ms
Heart [20]
  Activity: 34 ms
[8]
  Activity: 14%
Heart [21]
  Activity: 190 ms
Heart [22]
  Activity: 170
Heart [23]
  Activity: 72 ms
Heart [24]
  Activity: 34 ms
Heart [25]
  Activity: 75 ms
Heart [26]
  Activity: 70 ms
Heart [27]
  Activity: 32 ms
Heart [28]
  Activity: 175
[12]
  EC50: 0.47 µM
Aorta [9]
  inhibition at 100 µM: 3%
Heart [29]
  Activity: 166
Heart [30]
  Activity: 170 ms
Heart [31]
  Activity: 204 ms
Heart [32]
  Activity: 65 ms
Heart [33]
  Activity: 195 ms
[5]
  Activity: 86%
Heart [34]
  Activity: 182 ms

## Cc1cc(NS(C)(=O)=O)cc(C)c1NC(=O)C[C@@H]1CCCN2CCCC[C@H]12
[1]
  EC50: 310 nM
[7]
  Activity: 86%
[35]
  Activity: 8%
Aorta [9]
  inhibition at 100 µM: 24%
Cavia porcellus [36]
  Activity: inactive

## CCCCc1oc2ccccc2c1C(=O)c1cc(I)c(OCCN(CC)CC)c(I)c1 [AMIODARONE]
Heart [15]
  Activity: 20 ms
Heart [16]
  Activity: 187
Heart [17]
  Activity: 24 ms
Heart [18]
  Activity: 132
Heart [19]
  Activity: 54 ms
Heart [20]
  Activity: 22 ms
[7]
  Activity: 30%
Heart [21]
  Activity: 169 ms
Heart [22]
  Activity: 171
Heart [23]
  Activity: 56 ms
Heart [24]
  Activity: 20 ms
[2]
  Activity: 72%
Heart [25]
  Activity: 58 ms
Heart [26]
  Activity: 55 ms
Heart [27]
  Activity: 21 ms
Heart [28]
  Activity: 180
Aorta [9]
  inhibition at 100 µM: 3%
[11]
  Activity: 10%
Heart [29]
  Activity: 164
Heart [30]
  Activity: 161 ms
Heart [31]
  Activity: 182 ms
Heart [32]
  Activity: 55 ms
Heart [33]
  Activity: 174 ms
Heart [34]
  Activity: 161 ms

## Cc1cc(C(=O)c2ccccc2)cc(C)c1NC(=O)C[C@@H]1CCCN2CCCC[C@H]12
[6]
  Activity: 55%
[1]
  EC50: 760 nM
[8]
  Activity: 70%
Tissue or blood
  EC50: 3.98 µM
[12]
  EC50: 4.81 µM
Aorta [9]
  inhibition at 100 µM: 31%
[13]
  Activity: 88%

## Cc1cc(C(=O)c2ccccc2)ccc1NC(=O)C[C@@H]1CCCN2CCCC[C@H]12
[37]
  IC50: 3.7 µM

## Cc1cc(NS(C)(=O)=O)cc(C)c1OC[C@H]1CCCN2CCCC[C@H]12
[1]
  EC50: 140 nM
[2]
  Activity: 34%
[10]
  Activity: 64%
Aorta [9]
  inhibition at 100 µM: 23%
[11]
  Activity: 5%

## C=C[C@H]1CN2CC[C@H]1C[C@@H]2[C@@H](O)c1ccnc2ccc(OC)cc12 [QUINIDINE]
Heart [15]
  Activity: 27 ms
[6]
  Activity: 69%
[1]
  EC50: 3380 nM
Heart [17]
  Activity: 39 ms
Heart [19]
  Activity: 53 ms
Heart [20]
  Activity: 35 ms
[8]
  Activity: 86%
Heart [21]
  Activity: 182 ms
Heart [22]
  Activity: 140
Tissue or blood
  EC50: 3.99 µM
Heart [23]
  Activity: 60 ms
Heart [24]
  Activity: 25 ms
Heart [25]
  Activity: 70 ms
Heart [26]
  Activity: 57 ms
Heart [27]
  Activity: 31 ms
[12]
  EC50: 10.3 µM
Aorta [9]
  inhibition at 100 µM: 30%
[13]
  Activity: 71%
Heart [29]
  Activity: 123
Heart [32]
  Activity: 54 ms
Heart [33]
  Activity: 200 ms

## Nc1ccc(C(=O)NC[C@@H]2CCCN3CCCC[C@H]23)cc1
[1]
  EC50: 460 nM
[7]
  Activity: 95%
[35]
  Activity: 13%
Aorta [9]
  inhibition at 100 µM: 3%
[4]
  Activity: 28%

## Cc1cc(N)cc(C)c1OC[C@@H]1CCCN2CCCC[C@H]12
Heart [15]
  Activity: 33 ms
[1]
  EC50: 290 nM
Heart [16]
  Activity: 192
Heart [17]
  Activity: 32 ms
Heart [18]
  Activity: 175
Heart [19]
  Activity: 58 ms
[38]
  Activity: 83%
Heart [20]
  Activity: 32 ms
Heart [21]
  Activity: 182 ms
Heart [22]
  Activity: 184
Heart [23]
  Activity: 66 ms
Heart [24]
  Activity: 30 ms
[2]
  Activity: 38%
Heart [25]
  Activity: 70 ms
Heart [26]
  Activity: 64 ms
Heart [27]
  Activity: 31 ms
Heart [28]
  Activity: 190
[12]
  EC50: 0.97 µM
Aorta [9]
  inhibition at 100 µM: 15%
[11]
  Activity: 166%
Heart [29]
  Activity: 180
Heart [30]
  Activity: 160 ms
Heart [31]
  Activity: 205 ms
Heart [32]
  Activity: 60 ms
Heart [33]
  Activity: 194 ms
Heart [34]
  Activity: 170 ms
